Read-outs that look alike come from different tables or passages of the source.
What was measured:
[1] = target: T1, ATX (Homo sapiens, UniProt Q13822); experiment: ATX inhibitory activity: LPA production in pooled human plasma, LC-MS-MS; assay type: biochemical; conditions: 37° C. 2 h
T1 construct: ATX activity was detected by detecting LPA production in pooled human plasma; from tissue; host or cells: pooled human plasma (heparin-anticoagulated whole blood, centrifuged)
Protocol: Experimental subject: compounds to be tested.
ATX activity was detected by detecting LPA production in pooled human plasma. Whole blood anticoagulated with heparin was collected and centrifuged, and then plasma was collected. 5-μL gradient dilution of the compound to be tested or DMSO was added to 95-μL plasma, incubated at 37° C. for 2 h, then a stop solution (40 mM disodium hydrogen phosphate buffer, containing a buffer solution (containing 30 mM citric acid, pH=4)) was added. LPA in plasma was detected by LC-MS-MS before and after incubation.
LPA (18:2) and (20:4) LC-MS-MS analytical method
Using a 1.5 mL EP tube, 3.0 μL of each of the working solutions for standard curve and quality control was taken and added to 27.0 μL of water. After homogeneously mixing by vortex, 400 μL of internal standard solution was added. After homogeneously mixing by vortex, the mixture was centrifuged at 4° C. for 10 min. 180 μL of supernatant was taken and added into a 96-well plate, waiting for sample injection.
10 μL of the compound to be tested (10 mg/ml) was precisely pipetted into an EP tube, 990 μL of DMSO solution was added, and the mixture was vortexed to completely dissolve to obtain a solution (100 μg/mL).
Inhibition rate of ATX receptor activity was calculated in the following way: inhibition rate %=((LPAc−LPA0)−(LPAi−LPA0))/(LPAc−LPA0)*100%, wherein LPAc was the LPA content in plasma after DMSO was added and incubated for 2 h, LPA0 was the LPA content in plasma before DMSO was added for incubation, and LPAi was the LPA content in plasma after test compound was added and incubated for 2 h.

[2] = Pharmacokinetic experiment in mice (single dose iv and intragastric); assay type: in vivo; conditions: mouse, plasma, male C57 mice; for bioavailability: po 10 mg/kg vs iv 2.5 mg/kg, read-out: F (bioavailability)
Protocol: Experimental objective: In this experiment, a single dose of each test compound was administered to C57 mice intravenously and intragastrically, the concentrations of the compounds 35, 37 and 38 in plasma of the mice were measured, and the pharmacokinetic characteristics and bioavailability of each test compound in mice were evaluated.
Experimental animals: Male C57 mice, 20-25 g, 6-8 weeks old, 18 mice/compound. The experimental animals were purchased from CHENGDU DOSSY EXPERIMENTAL ANIMALS CO., LTD.
Experimental method: On the day of the experiment, 18 C57 mice were randomly grouped according to their body weight. The animals were fasted with water available for 12 to 14 hours one day before the administration of a test compound, and were fed 4 hours after the administration.
Before and after the administration, 0.08 ml of blood was taken from the orbit of the […] under isoflurane anesthesia, and placed in an EDTAK2 centrifuge tube. Centrifugation was carried out at 5000 rpm at 4° C. for 10 min and the plasma was collected.
Time points for plasma collection in G1 group: 0, 5, 15, 30 min, 1, 2, 4, 6, 8, and 24 h.
Time points for plasma collection in G2 group: 0, 15, 30 min, 1, 2, 4, 6, 8, and 24 h.
Before analysis and detection, all samples were stored at −80° C.
30 μL of each of plasma sample, standard curve and quality control sample was taken, and 200 μL of acetonitrile solution containing internal standard was added, and the mixture was homogeneously mixed by vortex, and then centrifuged at 12000 rpm for 10 min at 4° C. The supernatant was taken and added into a 96-well plate and analyzed by LC-MS/MS.
The main pharmacokinetic parameters were analyzed by non-compartmental model using WinNonlin 8.0 software.

[3] = LPA 18:2 readout, read-out: Inhibitory activity against ATX receptor, LPA 18:2 IC50
[4] = LPA 20:4 readout, read-out: Inhibitory activity against ATX receptor, LPA 20:4 IC50

Row | SMILES | IC50 [1, 3] [nM] | IC50 [1, 4] [nM] | bioavailability [2] [%] | AUC ([2]; iv 2.5 mg/kg) [ng·h/mL] | C0 ([2]; iv 2.5 mg/kg) [ng/mL] | half-life ([2]; iv 2.5 mg/kg) [min] | AUC ([2]; po 10 mg/kg) [ng·h/mL] | Cmax ([2]; po 10 mg/kg) [ng/mL] | Tmax ([2]; po 10 mg/kg) [min] | half-life ([2]; po 10 mg/kg) [min]
1 | C[C@@](F)(C(=O)N1CCc2[nH]nnc2C1)c1nnc(-c2cnc(NC3Cc4ccccc4C3)nc2)o1 (single isomer, unassigned) [Compound 38] | 5.53 | 5.88 | 59.3 | 1480 | 3330 | 33.1 | 3500 | 3590 | 15 | 48.3
2 | N#Cc1nc(CC(=O)N2CCc3[nH]nnc3C2)oc1-c1cnc(NC2Cc3ccccc3C2)nc1 [Compound 22, 5-(2-((2,3-dihydro-1H-inden-2-yl)amino)pyrimidin-5-yl)-2-(2-oxo-2-(1,4,6,7-tetrahydro-5H-[1,2,3]triazolo[4,5-c]pyridin-5-yl)ethyl)oxazole-4-carbonitrile] | 4.97 | 6.84 |  |  |  |  |  |  |  | 
3 | O=C(Cc1nnc(-c2cnc(NC3Cc4cscc4C3)nc2)o1)N1CCc2[nH]nnc2C1 [Compound 26, 2-(5-(2-((5,6-dihydro-4H-cyclopenta[c]thiophen-5-yl)amino)pyrimidin-5-yl)-1,3,4-oxadiazol-2-yl)-1-(1,4,6,7-tetrahydro-5H-[1,2,3]triazolo[4,5-c]pyridin-5-yl)ethan-1-one] | 8.73 | 8.86 |  |  |  |  |  |  |  | 
4 | CC(F)(C(=O)N1CCc2[nH]nnc2C1)c1nnc(-c2cnc(NC3Cc4ccccc4C3)nc2)o1 (centres unmarked) [Compound 27, 2-(5-(2-((2,3-dihydro-1H-inden-2-yl)amino)pyrimidin-5-yl)-1,3,4-oxadiazol-2-yl)-2-fluoro-1-(1,4,6,7-tetrahydro-5H-[1,2,3]triazolo[4,5-c]pyridin-5-yl)propan-1-one] | 6.26 | 7.08 |  |  |  |  |  |  |  | 
5 | O=C(Cc1nnc(-c2cnc(NC3Cc4ccc(-c5ccoc5)cc4C3)nc2)o1)N1CCc2[nH]nnc2C1 (centres unmarked) [Compound 28, 2-(5-(2-((5-(furan-3-yl)-2,3-dihydro-1H-inden-2-yl)amino)pyrimidin-5-yl)-1,3,4-oxadiazol-2-yl)-1-(1,4,6,7-tetrahydro-5H-[1,2,3]triazolo[4,5-c]pyridin-5-yl)ethan-1-one] | 5.24 | 5.4 |  |  |  |  |  |  |  | 
6 | O=C(Cc1nnc(-c2cnc(NC3Cc4cc5c(cc4C3)OCO5)nc2)o1)N1CCc2nn[nH]c2C1 [Compound 29, 2-(5-(2-((6,7-dihydro-5H-indeno[5,6-d][1,3]dioxol-6-yl)amino)pyrimidin-5-yl)-1,3,4-oxadiazol-2-yl)-1-(3,4,6,7-tetrahydro-5H-[1,2,3]triazolo[4,5-c]pyridin-5-yl)ethan-1-one] | 2.75 | 3.27 |  |  |  |  |  |  |  | 
7 | O=C(Cc1nnc(-c2cnc(NC3Cc4cc5c(cc4C3)CC5)nc2)o1)N1CCc2[nH]nnc2C1 [Compound 30, 2-(5-(2-((2,4,5,6-tetrahydro-1H-cyclobuta[f]inden-5-yl)amino)pyrimidin-5-yl)-1,3,4-oxadiazol-2-yl)-1-(1,4,6,7-tetrahydro-5H-[1,2,3]triazolo[4,5-c]pyridin-5-yl)ethan-1-one] | 1.58 | 1.92 |  |  |  |  |  |  |  | 
8 | C#Cc1ccc2c(c1)CC(Nc1ncc(-c3nnc(CC(=O)N4CCc5[nH]nnc5C4)o3)cn1)C2 (centres unmarked) [Compound 31, 2-(5-(2-((5-ethynyl-2,3-dihydro-1H-inden-2-yl)amino)pyrimidin-5-yl)-1,3,4-oxadiazol-2-yl)-1-(1,4,6,7-tetrahydro-5H-[1,2,3]triazolo[4,5-c]pyridin-5-yl)ethan-1-one] | 2.61 | 2.85 |  |  |  |  |  |  |  | 
9 | O=C(Cc1nnc(-c2cnc(N[C@@H]3Cc4ccc(C(F)(F)F)cc4C3)nc2)o1)N1CCc2[nH]nnc2C1 [Compound 35, (R)-1-(1,4,6,7-tetrahydro-5H-[1,2,3]triazolo[4,5-c]pyridin-5-yl)-2-(5-(2-((5-(trifluoromethyl)-2,3-dihydro-1H-inden-2-yl)amino)pyrimidin-5-yl)-1,3,4-oxadiazol-2-yl)ethan-1-one] | 2.17 | 2.25 | 35.6 | 6780 | 6850 | 61.2 | 9650 | 3370 | 30 | 56.8
10 | O=C(Cc1nnc(-c2cnc(N[C@@H]3Cc4ccc(C(F)F)cc4C3)nc2)o1)N1CCc2[nH]nnc2C1 [Compound 37, (R)-2-(5-(2-((5-(difluoromethyl)-2,3-dihydro-1H-inden-2-yl)amino)pyrimidin-5-yl)-1,3,4-oxadiazol-2-yl)-1-(1,4,6,7-tetrahydro-5H-[1,2,3]triazolo[4,5-c]pyridin-5-yl)ethan-1-one] | 4.84 | 4.78 | 17.8 | 3790 | 6640 | 53.3 | 2700 | 1600 | 15 | 78.6

Reference: patent US20230069174A1, “NITROGEN-CONTAINING HETEROCYCLIC AUTOTAXIN INHIBITOR, AND COMPOSITION CONTAINING SAME AND USE THEREOF” (SICHUAN HAISCO PHARMACEUTICAL CO., LTD., priority 2019, published 2023)
